Results on twelve molecules are retold here after US9926321B2, “Hsp90 inhibitors” (Sloan-Kettering Institute for Cancer Research, priority 2011, dated 2018).

Each structure is given as a SMILES string. pIC50: −log10 of the molar value.

The subject of one test is Hsp90. The experiment in a line: Hsp90 binding assay (fluorescence polarization, cy3B-GM displacement), human cancer cell lysate. As to conditions: fluorescence polarization, cy3B-GM displacement; the table does not say which lysate (SKBr3 or JNPL3). The method, then:
(§1) For the binding studies, fluorescence polarization (FP) assays w-re performed similarly as was previously reported [Du et al. (2007) “High-throughput screening fluorescence polarization assay for tumor-specific Hsp90” J. Biomol. Screen 12:915-924]. Briefly, FP measurements were performed on an Analyst GT instrument (Molecular Devices, Sunnyvale, Calif.). Measurements were taken in black 96-well microtiter plates (Corning #3650) where both the excitation and the emission occurred from the top of the well. A stock of 10 μM cy3B-GM was prepared in DMSO and diluted with HFB buffer (20 mM Hepes (K), pH 7.3, 50 mM KCl, 2 mM DTT, 5 mM MgCl2, 20 mM Na2MoO4, and 0.01% NP40 with 0.1 mg/mL BGG). The test compounds were dissolved in DMSO and added at several concentrations to the HFB assay buffer containing both 6 nM cy3B-GM and transgenic mouse brain lysate (6 μg JNPL3 lysate) or human cancer cell lysate (3 μg SKBr3 lysate) in a final volume of 100 μL. Drugs were added to triplicate wells. Free cy3B-GM (6 nM cy3B-GM), bound cy3B-GM (6 nM cy3B-GM+lysate, as indicated above) and buffer only containing wells (background) were included as controls in each plate. Plates were incubated on a shake at 4° C., and polarization values measured at 24 h. Percentage inhibition was calculated as follows: (% Control)=100−((mPc−mPf)/(mPb−mPf))×100, where mPc is the recorded mP from compound wells, mPf is the average recorded mP from cy3B-GM-only wells, and mPb is the average recorded mP from wells containing both cy3B-GM and lysate, and plotted against values of competitor concentrations. The inhibitor concentration at which 50% of bound cy3B-GM was displaced was obtained by fitting the data using a nonlinear regression analysis as implemented in Prism 4.0 (GraphPad Software).
(Polarisation of emitted light reports the rotation of a fluorescent probe.)

The test system of another test is Hsp90 (SKBr3 lysate). The description is as above. As to conditions: lysate not given. The method, then: as §1

As a reminder, the pIC50 is the IC50 on a negative log10 scale, so that one unit is a factor of ten. A higher pIC50 goes with a low IC50. In the test on Hsp90, `CC(C)C(=O)NCCCn1c(Sc2cc3c(cc2I)OCO3)nc2c(N)ncnc21` [Compound 1A-44, N-(3-(6-Amino-8-((6-iodobenzo[d][1,3]dioxol-5-yl)thio)-9H-purin-9-yl)propyl)isobutyramide] had a pIC50 of 7.17.

As for `CC(C)(C)[S+]([O-])NCCCn1c(Sc2cc3c(cc2I)CCO3)nc2c(N)ncnc21` (stereo not drawn) [Compound 2A-26, 2-Methyl-propane-2-sulfinic acid {3-[6-amino-8-(5-iodo-2,3-dihydro-benzofuran-6-ylsulfanyl)-purin-9-yl]-propyl}-amide], the pIC50 in the test on Hsp90 is 7.77. For the same molecule, in the test with Hsp90 (SKBr3 lysate), the “Hsp90 binding affinity (in words, referring to Table 12)” value (shortened to “Hsp90 binding affinity”) is “high level of binding affinity”.

`CS(=O)(=O)NCCn1c(Sc2cc3c(cc2I)OCO3)nc2c(N)ncnc21` [Compound 1A-10, N-{2-[6-Amino-8-(6-iodo-benzo[1,3]dioxol-5-ylsulfanyl)-purin-9-yl]-ethyl}-methanesulfonamide] gave a pIC50 with Hsp90 of 8.20. For the same molecule, the “Hsp90 binding affinity” value in the test on Hsp90 (SKBr3 lysate) was “high level of binding affinity”.

In the test on Hsp90, `CS(=O)(=O)NCCCn1c(Sc2cc3c(cc2I)CCC3)nc2c(N)ncnc21` [Compound 3A-24, N-{3-[6-Amino-8-(6-iodo-indan-5-ylsulfanyl)-purin-9-yl]-propyl}-methanesulfonamide] showed a pIC50 of 8.09. Moreover, the “Hsp90 binding affinity” value in the test on Hsp90 (SKBr3 lysate) is given as “high level of binding affinity”.

As for `CC(=O)OC(C)(C)C(=O)NCCCn1c(Sc2cc3c(cc2I)OCO3)nc2c(N)ncnc21` [Compound 1A-47, 1-((3-(6-Amino-8-((6-iodobenzo[d][1,3]dioxol-5-yl)thio)-9H-purin-9-yl)propyl)amino)-2-methyl-1-oxopropan-2-yl acetate], the pIC50 in the test on Hsp90 is 7.78.

The molecule `Nc1ncnc2c1nc(Sc1cc3c(cc1I)OCO3)n2CCCNS(=O)(=O)C1CC1` [Compound 1A-28, Cyclopropanesulfonic acid {3-[6-amino-8-(6-iodo-benzo[1,3]dioxol-5-ylsulfanyl)-purin-9-yl]-propyl}-amide] had a pIC50 in the test on Hsp90 of 7.71.

Consider `CC(C)(C)S(=O)(=O)NCCCn1c(Sc2cc3c(cc2I)OCO3)nc2c(N)ncnc21` [Compound 1A-25, 2-Methyl-propane-2-sulfonic acid {3-[6-amino-8-(6-iodo-benzo[1,3]dioxol-5-ylsulfanyl)-purin-9-yl]-propyl}-amide], for which, in the test with Hsp90, the pIC50 is 7.62.

In the test with Hsp90, `CC(C)CS(=O)(=O)NCCCn1c(Sc2cc3c(cc2I)OCO3)nc2c(N)ncnc21` [Compound 1A-27, 2-Methyl-propane-1-sulfonic acid {3-[6-amino-8-(6-iodo-benzo[1,3]dioxol-5-ylsulfanyl)-purin-9-yl]-propyl}-amide] showed a pIC50 of 7.19.

Regarding `COc1ccc(I)c(Sc2nc3c(N)ncnc3n2CCCNC(=O)C(C)(C)C)c1` [Compound 1A-49, N-(3-(6-amino-8-((2-iodo-5-methoxyphenyl)thio)-9H-purin-9-yl)propyl)pivalamide], the pIC50 in the test on Hsp90 is 7.55.

`CC(C)(C)[S+]([O-])NCCn1c(Cc2cc3c(cc2I)OCO3)nc2c(N)nc(F)nc21` (stereo not drawn) [Compound 4A-12, N-(2-(6-amino-2-fluoro-8-((6-iodobenzo[d][1,3]dioxol-5-yl)methyl)-9H-purin-9-yl)ethyl)-2-methylpropane-2-sulfinamide] showed a pIC50 in the test with Hsp90 of 7.53.

Consider `CC(C)(C)[S+]([O-])NCCn1c(Sc2cc3c(cc2I)CCC3)nc2c(N)ncnc21` (stereo not drawn) [Compound 3A-12, 2-Methyl-propane-2-sulfinic acid {2-[6-amino-8-(6-iodo-indan-5-ylsulfanyl)-purin-9-yl]-ethyl}-amide], for which the “Hsp90 binding affinity” value with Hsp90 (SKBr3 lysate) is listed as “high level of binding affinity”.

On to `NC(=O)CCCCCn1c(Sc2cc3c(cc2I)OCO3)nc2c(N)ncnc21` [Compound 1A-50, 6-(6-amino-8-((6-iodobenzo[d][1,3]dioxol-5-yl)thio)-9H-purin-9-yl)hexanamide], for which the pIC50 in the test on Hsp90 was 7.12.
